Tests used:
SIRT 1 = biological target: T1, SIRT 1 (Homo sapiens, UniProt Q96EB6); assay: SIRT 1 fluorometric drug discovery kit (AK-555, Biomol), deacetylation of Fluor de Lys-SIRT 1 substrate; format: biochemical; conditions: 100 µM candidate vs 100 µM resveratrol positive control; 25 µM Fluor de Lys-Sirt1, 25 µM NAD+
T1 sequence (Q96EB6 1-747): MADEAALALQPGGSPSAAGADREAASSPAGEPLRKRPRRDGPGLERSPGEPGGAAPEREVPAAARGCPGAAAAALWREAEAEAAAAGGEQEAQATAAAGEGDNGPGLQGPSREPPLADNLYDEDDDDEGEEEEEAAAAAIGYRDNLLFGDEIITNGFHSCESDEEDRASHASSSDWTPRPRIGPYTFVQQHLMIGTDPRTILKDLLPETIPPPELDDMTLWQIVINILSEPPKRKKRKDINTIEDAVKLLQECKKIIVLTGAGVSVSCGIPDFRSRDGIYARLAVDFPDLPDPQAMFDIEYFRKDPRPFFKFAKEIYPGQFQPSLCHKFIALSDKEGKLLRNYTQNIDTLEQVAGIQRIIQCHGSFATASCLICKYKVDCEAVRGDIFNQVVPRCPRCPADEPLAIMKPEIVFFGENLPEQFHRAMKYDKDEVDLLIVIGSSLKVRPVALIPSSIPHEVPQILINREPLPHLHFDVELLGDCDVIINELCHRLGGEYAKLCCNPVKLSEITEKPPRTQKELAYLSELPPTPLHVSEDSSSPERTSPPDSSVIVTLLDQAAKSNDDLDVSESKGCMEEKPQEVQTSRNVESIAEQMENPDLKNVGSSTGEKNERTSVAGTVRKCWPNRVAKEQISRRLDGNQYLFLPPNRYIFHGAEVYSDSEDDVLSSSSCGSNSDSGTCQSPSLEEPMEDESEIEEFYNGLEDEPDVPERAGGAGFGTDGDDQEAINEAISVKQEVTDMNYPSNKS
Experimental: SIRT 1 activity of candidate SIRT 1 activator compounds synthesized based on the benzo[d]furan backbone were measured using a SIRT 1 fluorometric drug discovery kit (AK-555, Biomol). Briefly, as the substrate for analysis, 0.2 U/L of Fluor de Lys-SIRT 1 substrate developer mixture is used, which is amino acid 379382 of human […] AC), and SIRT 1 incubated with cosubstrate NAD^+. The degree of initial deacetylation of SIRT 1 for 100 μM candidate was measured using 100 μM resveratrol as a positive control in 25 μM Fluor de Lys-Sirt1 and 25 μM NAD^+ environments. The reaction was stopped using Fluor de LysTM Developer II/2 mM nicotinamide, followed by measuring fluorescence (Excitation: 360 nm, Emission: 460 nm). The SIRT 1 activity for candidate SIRT 1 activator compounds synthesized based on the benzo[d]oxazole backbone were measured using SIRT 1 fluorometric drug discovery kit (AK-555, Biomol). Briefly, 0.2 U/L of Fluor de Lys-SIRT 1 substrate developer mixture liquid was used as the analytical substrate, meaning amino acid 379382 of human […] […] The initial degree of deacetylation of SIRT 1 for 100 μM candidate was measured using 100 μM resveratrol as a positive control in 25 μM Fluor de Lys-Sirt1 and 25 μM NAD+. The reaction was stopped using Fluor de LysTM Developer II/2 mM nicotinamide, followed by fluorescence (Excitation: 360 nm, Emission: 460 nm).

[1] = tested on: yeast (Saccharomyces cerevisiae); assay: Yeast lifespan extension; conditions: yeast group treated, compared with the control group

Cl.O=C(Nc1ccccc1-c1cc2ccc(CN3CCNCC3)cc2o1)c1ccc2ccccc2c1 [Compound 32u, N-(2-(6-(Piperazin-1-ylmethyl)benzofuran-2-yl)phenyl)-2-naphthamide hydrochloride]
SIRT 1 activity (SIRT 1): higher SIRT 1 activity effect than resveratrol
lifespan [1]: significantly extended

O=C(Nc1ccccc1-c1nc2cc(CN3CCN(C4CCCCC4)CC3)ccc2o1)c1ccc2ccccc2c1 [Compound 70c, N-(2-(5-((4-Cyclohexylpiperazin-1-yl)methyl)benzo[d]oxazol-2-yl)phenyl)-2-naphthamide]
SIRT 1 activity (SIRT 1): higher SIRT 1 activity effect than resveratrol

Reference: patent publication EP3613735A1, “NOVEL SIRT 1 ACTIVATOR AND MEDICINAL USE THEREOF” (Pusan National University Industry - University Cooperation …, priority 2017, dated 2018)
